Measurements published in patent US8906928B2, “Substituted pyrazolo-pyrrolo-pyridine-dione compounds” (ArQule, Inc., priority 2009, dated 2014).

Columns and labels:
Format in all cases: cell-based
[1] = tested on: PC-3; test: MTS assay (cell growth inhibition), PC-3; details: PC-3 cells, 72 hours incubation with test compound; concentration not given
Protocol: (§1) Cells were maintained at 37° C., 5% CO2 in DMEM media supplemented with 1% fetal bovine serum, penicillin/streptomycin and fungizone (Invitrogen). Cells were seeded into 96-well tissue culture plates at 3000 per well and cultured at 37° C. for 18 hours. Test compounds were dissolved and diluted to 300× in DMSO then diluted 1:40 in DMEM. Cells were incubated with test compounds for 72 hours followed by incubation with tetrazolium compound (3-(4,5-dimethylthiazol-2-yl)-5-(3-carboxymethoxyphenyl)-2-(4-sulfophenyl)-2H-tetrazolium, inner salt; MTS) and the electron coupling reagent, phenazine methosulfate (PMS) for 4 hours. […] The ability of compounds to inhibit cell growth in this assay is correlated with the reduction of dehydrogenase enzyme activity found in metabolically active cells. The measurement of the absorbance of the formazan was assessed using an ENVISION™ (Perkin Elmer) microplate reader at 492 nm. The calculated IC50 value is the concentration of the test compound that causes a 50% decrease in the absorbance.

[2] = tested on: MDA-MB; test: MTS assay (cell growth inhibition), MDA-MB; details: MDA-MB cells, 72 hours incubation with test compound; concentration not given
Protocol: as §1

[3] = tested on: PACA-2; test: MTS assay (cell growth inhibition), PACA-2; details: PACA-2 cells, 72 hours incubation with test compound; concentration not given
Protocol: as §1

[4] = tested on: NCI-H1299; test: MTS assay (cell growth inhibition), NCI-H1299; details: NCI-H1299 cells, 72 hours incubation with test compound; concentration not given
Protocol: as §1

[5] = tested on: Kato III; test: MTS assay (cell growth inhibition), Kato III; details: Kato III cells, 72 hours incubation with test compound; concentration not given
Protocol: as §1

[6] = tested on: DLD-1; test: MTS assay (cell growth inhibition), DLD-1; details: DLD-1 cells, 72 hours incubation with test compound; concentration not given
Protocol: as §1

| Structure (SMILES) | MTS CELL KILL DATA (% INHIBITION) PC-3 [1] | MTS CELL KILL DATA (% INHIBITION) MDA-MB [2] | MTS CELL KILL DATA (% INHIBITION) PACA-2 [3] | MTS CELL KILL DATA (% INHIBITION) NCI-H1299 [4] | MTS CELL KILL DATA (% INHIBITION) Kato III [5] | MTS CELL KILL DATA (% INHIBITION) DLD-1 [6] |
| --- | --- | --- | --- | --- | --- | --- |
| CSc1cccc(-c2n[nH]c3ncc4c(c23)C(=O)N(CCc2ccccc2)C4=O)c1 [Example 159, 1-[3-(methylsulfanyl)phenyl]-7-(2-phenylethyl)pyrazolo[3,4-b]pyrrolo[3,4-d]pyridine-6,8(3H,7H)-dione] | A (A = 80-100% INHIBITION) | A (A = 80-100% INHIBITION) | A (A = 80-100% INHIBITION) | A (A = 80-100% INHIBITION) | A (A = 80-100% INHIBITION) | A (A = 80-100% INHIBITION) |
| O=C1c2cnc3[nH]ncc3c2C(=O)N1CCc1c2ccccc2cc2ccccc12 [Example 129, 7-[2-(9-anthryl)ethyl]pyrazolo[3,4-b]pyrrolo[3,4-d]pyridine-6,8(3H,7H)-dione] | A (A = 80-100% INHIBITION) | A (A = 80-100% INHIBITION) | C (C = <50% INHIBITION) | C (C = <50% INHIBITION) | C (C = <50% INHIBITION) | A (A = 80-100% INHIBITION) |
| COc1cc(Cl)ccc1CN1C(=O)c2cnc3[nH]ncc3c2C1=O [Example 33, 7-(4-chloro-2-methoxybenzyl)pyrazolo[3,4-b]pyrrolo[3,4-d]pyridine-6,8(3H,7H)-dione] | C (C = <50% INHIBITION) | A (A = 80-100% INHIBITION) | C (C = <50% INHIBITION) | C (C = <50% INHIBITION) | C (C = <50% INHIBITION) | C (C = <50% INHIBITION) |
| O=C1c2cnc3[nH]ncc3c2C(=O)N1Cc1c(F)ccc(Cl)c1F [Example 34, 7-(3-chloro-2,6-difluorobenzyl)pyrazolo[3,4-b]pyrrolo[3,4-d]pyridine-6,8(3H,7H)-dione] | A (A = 80-100% INHIBITION) | A (A = 80-100% INHIBITION) | A (A = 80-100% INHIBITION) | A (A = 80-100% INHIBITION) | A (A = 80-100% INHIBITION) | A (A = 80-100% INHIBITION) |
| Cc1ccc(OCCN2C(=O)c3cnc4[nH]ncc4c3C2=O)cc1 [Example 125, 7-[2-(4-methylphenoxy)ethyl]pyrazolo[3,4-b]pyrrolo[3,4-d]pyridine-6,8(3H,7H)-dione] | A (A = 80-100% INHIBITION) | A (A = 80-100% INHIBITION) | A (A = 80-100% INHIBITION) | C (C = <50% INHIBITION) | C (C = <50% INHIBITION) | C (C = <50% INHIBITION) |
| CC(CCN1C(=O)c2cnc3[nH]ncc3c2C1=O)c1ccccc1 (stereo not drawn) [Example 53, 7-(3-phenylbutyl)pyrazolo[3,4-b]pyrrolo[3,4-d]pyridine-6,8(3H,7H)-dione] | A (A = 80-100% INHIBITION) | A (A = 80-100% INHIBITION) | A (A = 80-100% INHIBITION) | C (C = <50% INHIBITION) | C (C = <50% INHIBITION) | C (C = <50% INHIBITION) |
| O=C1c2cnc3[nH]ncc3c2C(=O)N1CCOc1ccccc1Cl [Example 25, 7-[2-(2-chlorophenoxy)ethyl]pyrazolo[3,4-b]pyrrolo[3,4-d]pyridine-6,8(3H,7H)-dione] | A (A = 80-100% INHIBITION) | A (A = 80-100% INHIBITION) | C (C = <50% INHIBITION) | C (C = <50% INHIBITION) | C (C = <50% INHIBITION) | C (C = <50% INHIBITION) |
| O=C1c2cnc3[nH]ncc3c2C(=O)N1Cc1ccc(F)c(F)c1F [Example 20, 7-(2,3,4-trifluorobenzyl)pyrazolo[3,4-b]pyrrolo[3,4-d]pyrindine-6,8(3H,7H)-dione] | A (A = 80-100% INHIBITION) | A (A = 80-100% INHIBITION) | C (C = <50% INHIBITION) | C (C = <50% INHIBITION) | C (C = <50% INHIBITION) | C (C = <50% INHIBITION) |
| CN(C)c1cccc(CN2C(=O)c3cnc4[nH]ncc4c3C2=O)c1 [Example 23] | C (C = <50% INHIBITION) | C (C = <50% INHIBITION) | C (C = <50% INHIBITION) | C (C = <50% INHIBITION) | C (C = <50% INHIBITION) | C (C = <50% INHIBITION) |
| CC(CN1C(=O)c2cnc3[nH]ncc3c2C1=O)c1ccccc1 (stereo not drawn) [Example 96, 7-(2-phenylpropyl)pyrazolo[3,4-b]pyrrolo[3,4-d]pyridine-6,8(3H,7H)-dione] | C (C = <50% INHIBITION) | C (C = <50% INHIBITION) | C (C = <50% INHIBITION) | C (C = <50% INHIBITION) | C (C = <50% INHIBITION) | C (C = <50% INHIBITION) |
| O=C1c2cnc3[nH]ncc3c2C(=O)N1CC1C[C@H]2CC[C@@H]1C2 (stereo partly drawn) [Example 35, 7-[(1R,4S)-bicyclo[2.2.1]hept-2-ylmethyl]pyrazolo[3,4-b]pyrrolo[3,4-d]pyridine-6,8(3H,7H)-dione] | C (C = <50% INHIBITION) | C (C = <50% INHIBITION) | C (C = <50% INHIBITION) | C (C = <50% INHIBITION) | C (C = <50% INHIBITION) | C (C = <50% INHIBITION) |
| COc1c(C)cnc(CN2C(=O)c3cnc4[nH]ncc4c3C2=O)c1C [Example 72, 7-[(4-methoxy-3,5-dimethylpyridin-2-yl)methyl]pyrazolo[3,4-b]pyrrolo[3,4-d]pyridine-6,8(3H,7H)-dione] | A (A = 80-100% INHIBITION) | A (A = 80-100% INHIBITION) | C (C = <50% INHIBITION) | C (C = <50% INHIBITION) | A (A = 80-100% INHIBITION) | C (C = <50% INHIBITION) |
| CC(C)(C)c1ccc(-c2n[nH]c3ncc4c(c23)C(=O)N(CCc2ccccc2)C4=O)cc1 [Example 166, 1-(4-tert-butylphenyl)-7-(2-phenylethyl)pyrazolo[3,4-b]pyrrolo[3,4-d]pyridine-6,8(3H,7H)-dione] | C (C = <50% INHIBITION) | A (A = 80-100% INHIBITION) | B (B = 50-79% INHIBITION) | C (C = <50% INHIBITION) | C (C = <50% INHIBITION) | A (A = 80-100% INHIBITION) |
| O=C1c2cnc3[nH]ncc3c2C(=O)N1Cc1c(F)ccc(Cl)c1Cl [Example 97, 7-(2,3-dichloro-6-fluorobenzyl)pyrazolo[3,4-b]pyrrolo[3,4-d]pyridine-6,8(3H,7H)-dione] | C (C = <50% INHIBITION) | C (C = <50% INHIBITION) | C (C = <50% INHIBITION) | C (C = <50% INHIBITION) | C (C = <50% INHIBITION) | C (C = <50% INHIBITION) |
| O=C1c2cnc3[nH]nc(-c4cncnc4)c3c2C(=O)N1CCc1ccccc1 [Example 151, 7-(2-phenylethyl)-1-pyrimidin-5-ylpyrazolo[3,4-b]pyrrolo[3,4-d]pyridine-6,8(3H,7H)-dione] | B (B = 50-79% INHIBITION) | C (C = <50% INHIBITION) | A (A = 80-100% INHIBITION) | C (C = <50% INHIBITION) | A (A = 80-100% INHIBITION) | A (A = 80-100% INHIBITION) |
| O=C1c2cnc3[nH]ncc3c2C(=O)N1Cc1ccncc1 [Example 43, 7-(pyridin-4-ylmethyl)pyrazolo[3,4-b]pyrrolo[3,4-d]pyridine-6,8(3H,7H)-dione] | A (A = 80-100% INHIBITION) | A (A = 80-100% INHIBITION) | A (A = 80-100% INHIBITION) | C (C = <50% INHIBITION) | C (C = <50% INHIBITION) | C (C = <50% INHIBITION) |
